Assay results reported in patent US20070015214A1, “Methods for identifying compounds for regulating muscle mass or function using prostanoid IP receptors” (The Procter & Gamble Company, priority 2005, published 2007).
Marks after values point to notes of the source that are not given here.

System: casting-induced atrophy of the tibialis anterior and medial gastrocnemius muscles
Experiment: mouse casting model of skeletal muscle atrophy
Type: in vivo
Settings: fourteen days, casted right hind leg, male mice
Procedure: The role of the prostanoid IP receptor in vivo is investigated in the mouse casting model of skeletal muscle atrophy using the pharmacological agents carbaprostacyclin, ciprostene, beraprost and iloprost (Cayman Chemical Company, Ann Arbor, Mich.) which are selective agonists for the prostanoid IP receptor. Eight mice are used per treatment group in the study described. Following casting of the right hind leg, male mice are injected subcutaneously in the midscapular region once daily, with either carbaprostacyclin, ciprostene, beraprost, iloprost or vehicle control (phosphate buffered saline), for fourteen days at the daily delivered dose indicated. On day fourteen, the tibialis anterior and medial gastrocnemius muscles are removed and weighed to determine the degree of atrophy. Percent inhibition of atrophy is calculated using the following formula: [formula] Statistical significance of the results is determined using ANCOVA (Douglas C. Montgomery, Design and Analysis of Experiments, John Wiley and Sons, New York (2nd ed. 1984).

[1] = 0.3 mg/kg/d subcutaneously once daily
[2] = 1.0 mg/kg/d subcutaneously once daily
[3] = 3.0 mg/kg/d subcutaneously once daily

| Compound | % inhibition of atrophy medial gastrocnemius muscle [1] | % inhibition of atrophy tibialis anterior muscle [1] | % inhibition of atrophy medial gastrocnemius muscle [2] | % inhibition of atrophy tibialis anterior muscle [2] | % inhibition of atrophy medial gastrocnemius muscle [3] | % inhibition of atrophy tibialis anterior muscle [3] |
| --- | --- | --- | --- | --- | --- | --- |
| CCCCC[C@H](O)/C=C/[C@@H]1[C@H]2C/C(=C/CCCC(=O)O)C[C@H]2C[C@H]1O [Carbaprostacyclin] | 1% | 0% | 24* % | 12% | 43* % | 8% |
| CC#CCC(C)[C@H](O)/C=C/[C@@H]1[C@H]2C/C(=C/CCCC(=O)O)C[C@H]2C[C@H]1O (stereo partly drawn) [Iloprost] | 42* % | 18% | 36* % | 21* % | 31* % | 11% |
| CC#CCC(C)[C@H](O)/C=C/[C@@H]1[C@H]2c3cccc(CCCC(=O)O)c3O[C@H]2C[C@H]1O (mixture of isomers) [Beraprost] | 46* % | 28* % | 22% | 27* % | 28* % | 5% |
| CCCCC[C@H](O)/C=C/[C@H]1[C@H](O)C[C@]2(C)C/C(=C\CCCC(=O)O)C[C@H]12 [Ciprostene] | 25* % | 5% | 20% | 9% | 43* % | 25* % |
